From patent publication US7915267B2, “Heterocyclic amide compound and use thereof” (Takeda Pharmaceutical Company Limited, priority 2005, dated 2011)

molecular target: T1, MMP-13 (Homo sapiens, UniProt P45452); assay: MMP-13 inhibitory activity (fluorogenic substrate Cy3-PLGLK(Cy5Q)AR-NH2 enzyme assay); assay type: biochemical; details: compound 1 μM; 37° C., 40 min; APMA-activated MMP-13 precursor; read-out: MMP-13 inhibitory rate (%) at 1 μM
T1 construct: purchased GenzymeTechne
Protocol: To 10 μg of MMP-13 precursor (GenzymeTechne) was added 1 ml of assay buffer (50 mM Tris-HCl (pH 7.5), 10 mM CaCl2, 150 mM NaCl, 0.05% Brij-35), and 4-aminophenylmercuric acid (Sigma) was added to the final concentration of 1 mM. The MMP-13 precursor was activated by incubating at 37° C. for 2 hr.
In a 96 well black plate (Corning), to 6.3 ng/ml of MMP-13 solution (49 μl) diluted with assay buffer was added the test compound (1 μl) diluted with dimethyl sulfoxide (DMSO) and 620 nM Cy3-PLGLK(Cy5Q)AR-NH2 (50 μl, synthesized by Amersham Biosciences) in assay buffer was added to start the enzyme reaction. After incubation at 37° C. for 40 min, 500 mM EDTA solution (6 μl) was added to stop the reaction. For measurement, Farcyte (Amersham Biosciences) was used to measure at excitation wavelength 535 nm and measurement wavelength 595 nm.
T: value of well with addition of DMSO instead of test compound
C: value of well with addition of DMSO instead of test compound and addition of EDTA solution before addition of substrate solution
X: value of well with addition of test compound

Row | SMILES | inhibition at 1 µM
1 | O=C(CCCOc1cccc(CNC(=O)c2nc3ccccc3c(=O)[nH]2)c1)Nc1nc[nH]n1 [Example 40, 4-oxo-N-[(3-{[4-oxo-4-(1H-1,2,4-triazol-3-ylamino)butyl]oxy}phenyl)methyl]-3,4-dihydroquinazoline-2-carboxamide] | 94%
2 | CCOC(=O)c1ccc(COCc2csc3nc(C(=O)NCc4ccnc(OCCCc5nc[nH]n5)c4)[nH]c(=O)c23)cc1 [Example 41, ethyl 4-[({[4-oxo-2-({[(2-{[3-(1H-1,2,4-triazol-3-yl)propyl]oxy}pyridin-4-yl)methyl]amino}carbonyl)-3,4-dihydrothieno[2,3-d]pyrimidin-5-yl]methyl}oxy)methyl]benzoate] | 96%
3 | O=C(O)c1ccc(COCc2csc3nc(C(=O)NCc4ccnc(OCCCc5nc[nH]n5)c4)[nH]c(=O)c23)cc1 [Example 42, 4-[({[4-oxo-2-({[(2-{[3-(1H-1,2,4-triazol-3-yl)propyl]oxy}pyridin-4-yl)methyl]amino}carbonyl)-3,4-dihydrothieno[2,3-d]pyrimidin-5-yl]-methyl}oxy)methyl]benzoic acid] | 98%
4 | O=C(NCc1cccc(OCCOc2nc[nH]n2)c1)c1nc2ccc(F)c(F)c2c(=O)[nH]1 [Example 44, 5,6-difluoro-4-oxo-N-[(3-{[2-(1H-1,2,4-triazol-3-yloxy)ethyl]oxy}phenyl)methyl]-3,4-dihydroquinazoline-2-carboxamide] | 98%
5 | O=C(NCc1cccc(OCCOc2nc[nH]n2)c1)c1nc2ccc(F)c(NCc3cccc(OCCOc4nc[nH]n4)c3)c2c(=O)[nH]1 [Example 45, 6-fluoro-4-oxo-N-[(3-{[2-(1H-1,2,4-triazol-3-yloxy)ethyl]oxy}phenyl)methyl]-5-{[(3-{[2-(1H-1,2,4-triazol-3-yloxy)ethyl]oxy}phenyl)methyl]amino}-3,4-dihydroquinazoline-2-carboxamide] | 97%
6 | O=C(O)c1ccc(CCOc2c(F)ccc3nc(C(=O)NCc4cccc(OCCOc5nc[nH]n5)c4)[nH]c(=O)c23)cc1 [Example 46, 4-(2-{[6-fluoro-4-oxo-2-({[(3-{[2-(1H-1,2,4-triazol-3-yloxy)ethyl]oxy}phenyl)methyl]amino}carbonyl)-3,4-dihydroquinazolin-5-yl]oxy}ethyl)benzoic acid] | 100%
7 | COC(=O)c1ccc(OCCn2ncc3nc(C(=O)NCc4cccc(OCCOc5nc[nH]n5)c4)[nH]c(=O)c32)cc1 [Example 47, methyl 4-({2-[7-oxo-5-({[(3-{[2-(1H-1,2,4-triazol-3-yloxy)ethyl]oxy}phenyl)methyl]amino)carbonyl}-6,7-dihydro-1H-pyrazolo[4,3-d]pyrimidin-1-yl]ethyl}oxy)benzoate] | 98%
8 | O=C(O)c1ccc(OCCn2ncc3nc(C(=O)NCc4cccc(OCCOc5nc[nH]n5)c4)[nH]c(=O)c32)cc1 [Example 48, 4-({2-[7-oxo-5-({[(3-{[2-(1H-1,2,4-triazol-3-yloxy)ethyl]oxy}phenyl)methyl]amino}carbonyl)-6,7-dihydro-1H-pyrazolo[4,3-d]pyrimidin-1-yl]ethyl}oxy)benzoic acid] | 99%
